Source: the NIST ThermoML archive (doi:10.1016/j.jct.2009.02.008)
Values joined by “and” are separate entries in the source; they are usually repeats but may differ in a detail not shown here. Equal values may be shown once.

Legend:
[1] = for vapor or sublimation pressure: Torsion effusion method; for Normal melting temperature: DTA
[2] = Molar enthalpy of transition or fusion; settings: Crystal; DSC

O=C(O)c1ccc([N+](=O)[O-])cc1[N+](=O)[O-] [2,4-dinitrobenzoic acid]
[1]
Settings | vapor or sublimation pressure
363.5 K, Crystal | 3e-05 kPa
370 K, Crystal | 6e-05 kPa
373 K, Crystal | 9e-05 kPa
375 K, Crystal | 0.000105 kPa
377 K, Crystal | 0.00015 kPa
377.5 K, Crystal | 0.00015 kPa
379 K, Crystal | 0.000195 kPa
381 K, Crystal | 0.00024 kPa
381.5 K, Crystal | 0.00024 kPa
385 K, Crystal | 0.00033 kPa
388.5 K, Crystal | 0.000511 kPa and 0.000541 kPa
389 K, Crystal | 0.00048 kPa and 0.000541 kPa
391 K, Crystal | 0.000601 kPa and 0.000631 kPa and 0.000691 kPa
393 K, Crystal | 0.000781 kPa
393.5 K, Crystal | 0.000901 kPa
394 K, Crystal | 0.000871 kPa
396.5 K, Crystal | 0.001141 kPa
397 K, Crystal | 0.001141 kPa
399 K, Crystal | 0.001351 kPa and 0.001502 kPa
399.5 K, Crystal | 0.001622 kPa
400 K, Crystal | 0.001622 kPa
401.5 K, Crystal | 0.001952 kPa
402 K, Crystal | 0.001862 kPa
402.5 K, Crystal | 0.001922 kPa
494.3 K, Liquid | 0.85 kPa
494.4 K, Liquid | 0.85 kPa
494.5 K, Liquid | 0.851 kPa
494.7 K, Liquid | 0.85 kPa
495.6 K, Liquid | 0.874 kPa
495.7 K, Liquid | 0.883 kPa
495.8 K, Liquid | 0.879 kPa
495.9 K, Liquid | 0.884 kPa
500.6 K, Liquid | 1.05 kPa and 1.065 kPa
500.8 K, Liquid | 1.051 kPa and 1.058 kPa
501.1 K, Liquid | 1.047 kPa
501.2 K, Liquid | 1.016 kPa and 1.046 kPa and 1.048 kPa
501.5 K, Liquid | 1.06 kPa
502.4 K, Liquid | 1.13 kPa
503.2 K, Liquid | 1.259 kPa
504.4 K, Liquid | 1.202 kPa
505.3 K, Liquid | 1.309 kPa
506.2 K, Liquid | 1.299 kPa
507.1 K, Liquid | 1.451 kPa
507.2 K, Liquid | 1.464 kPa
507.4 K, Liquid | 1.458 kPa
507.5 K, Liquid | 1.475 kPa
508.1 K, Liquid | 1.511 kPa
508.2 K, Liquid | 1.484 kPa and 1.513 kPa
508.3 K, Liquid | 1.516 kPa
508.5 K, Liquid | 1.513 kPa
510.3 K, Liquid | 1.607 kPa
511.4 K, Liquid | 1.647 kPa
511.5 K, Liquid | 1.909 kPa
512.3 K, Liquid | 1.785 kPa
512.8 K, Liquid | 1.798 kPa and 1.814 kPa and 1.816 kPa
512.9 K, Liquid | 1.849 kPa [middle of 4 runs]
513 K, Liquid | 1.814 kPa
513.2 K, Liquid | 1.704 kPa
514.4 K, Liquid | 1.9 kPa
515.2 K, Liquid | 1.995 kPa
516.4 K, Liquid | 1.952 kPa
517.2 K, Liquid | 2.293 kPa and 2.389 kPa and 2.212 kPa
517.3 K, Liquid | 2.207 kPa and 2.212 kPa
518.4 K, Liquid | 2.196 kPa
519.3 K, Liquid | 2.153 kPa
520.2 K, Liquid | 2.466 kPa
521.4 K, Liquid | 2.522 kPa
522.3 K, Liquid | 2.494 kPa
523 K, Liquid | 2.741 kPa
523.1 K, Liquid | 2.703 kPa and 2.754 kPa
523.2 K, Liquid | 2.768 kPa
523.3 K, Liquid | 2.731 kPa
524.3 K, Liquid | 2.997 kPa
526.3 K, Liquid | 3.049 kPa
527.2 K, Liquid | 3.107 kPa
528.4 K, Liquid | 3.467 kPa
528.9 K, Liquid | 3.528 kPa and 3.623 kPa and 3.453 kPa
529 K, Liquid | 3.447 kPa
529.2 K, Liquid | 3.297 kPa
530.4 K, Liquid | 3.895 kPa
531.2 K, Liquid | 3.694 kPa
531.3 K, Liquid | 3.86 kPa and 3.894 kPa
531.4 K, Liquid | 3.865 kPa
531.5 K, Liquid | 3.847 kPa
532.2 K, Liquid | 3.786 kPa
533.4 K, Liquid | 4.205 kPa
534.2 K, Liquid | 4.308 kPa and 3.936 kPa and 4.141 kPa
534.4 K, Liquid | 4.173 kPa and 4.085 kPa
535.4 K, Liquid | 4.593 kPa
536.3 K, Liquid | 4.615 kPa
537.3 K, Liquid | 4.715 kPa and 4.48 kPa
537.4 K, Liquid | 4.808 kPa and 4.815 kPa
537.5 K, Liquid | 4.648 kPa
538.2 K, Liquid | 4.909 kPa
539.2 K, Liquid | 5.258 kPa and 5.485 kPa and 5.433 kPa
539.3 K, Liquid | 5.693 kPa
539.4 K, Liquid | 4.999 kPa
540.3 K, Liquid | 5.053 kPa
541.2 K, Liquid | 5.592 kPa
543.3 K, Liquid | 5.789 kPa
544.2 K, Liquid | 5.62 kPa

Settings | Normal melting temperature [°C]
[1], Crystal | 182.7

Settings | Molar enthalpy of transition or fusion [kcal/mol]
[2] | 7.31

O=C(O)c1ccc([N+](=O)[O-])c([N+](=O)[O-])c1 [3,4-dinitrobenzoic acid]
[1]
Settings | vapor or sublimation pressure
366 K, Crystal | 6e-05 kPa
367 K, Crystal | 7.5e-05 kPa
368 K, Crystal | 7.5e-05 kPa
369 K, Crystal | 9e-05 kPa
370 K, Crystal | 0.000105 kPa
370.5 K, Crystal | 0.000105 kPa
373 K, Crystal | 0.00015 kPa
373.5 K, Crystal | 0.00015 kPa
374 K, Crystal | 0.00015 kPa
374.5 K, Crystal | 0.00015 kPa
376 K, Crystal | 0.00018 kPa
378 K, Crystal | 0.00024 kPa
379 K, Crystal | 0.00027 kPa
380 K, Crystal | 0.00027 kPa
382 K, Crystal | 0.00039 kPa and 0.00036 kPa
383 K, Crystal | 0.00039 kPa
383.5 K, Crystal | 0.00039 kPa
384.5 K, Crystal | 0.00048 kPa
385 K, Crystal | 0.000511 kPa
386.5 K, Crystal | 0.000541 kPa
387 K, Crystal | 0.000571 kPa
387.5 K, Crystal | 0.000631 kPa
390.5 K, Crystal | 0.000841 kPa
391.5 K, Crystal | 0.000901 kPa
392 K, Crystal | 0.000991 kPa
393 K, Crystal | 0.001171 kPa
393.5 K, Crystal | 0.001111 kPa
396 K, Crystal | 0.001502 kPa and 0.001441 kPa
396.5 K, Crystal | 0.001622 kPa
397 K, Crystal | 0.001652 kPa
398.5 K, Crystal | 0.001862 kPa
399.3 K, Crystal | 0.001952 kPa
504.2 K, Liquid | 1.398 kPa
506.3 K, Liquid | 1.467 kPa and 1.527 kPa
508.1 K, Liquid | 1.661 kPa
509.3 K, Liquid | 1.686 kPa and 1.713 kPa
510.3 K, Liquid | 1.855 kPa
511.2 K, Liquid | 1.855 kPa
512.2 K, Liquid | 2.062 kPa and 1.928 kPa
512.6 K, Liquid | 2.021 kPa
513.3 K, Liquid | 2.078 kPa
514 K, Liquid | 2.144 kPa
514.2 K, Liquid | 2.189 kPa
514.5 K, Liquid | 2.164 kPa
515.2 K, Liquid | 2.237 kPa
516.3 K, Liquid | 2.326 kPa and 2.215 kPa
517.3 K, Liquid | 2.424 kPa
517.4 K, Liquid | 2.494 kPa
517.5 K, Liquid | 2.396 kPa
518.2 K, Liquid | 2.524 kPa and 2.484 kPa
518.3 K, Liquid | 2.448 kPa
519.1 K, Liquid | 2.585 kPa
519.3 K, Liquid | 2.646 kPa
519.5 K, Liquid | 2.554 kPa
520 K, Liquid | 2.619 kPa
520.2 K, Liquid | 2.672 kPa and 2.772 kPa and 2.726 kPa
521.2 K, Liquid | 2.916 kPa
521.3 K, Liquid | 2.807 kPa
521.7 K, Liquid | 2.815 kPa
522.1 K, Liquid | 2.909 kPa and 2.971 kPa
522.2 K, Liquid | 2.978 kPa
523.1 K, Liquid | 3.104 kPa
523.3 K, Liquid | 3.095 kPa and 3.121 kPa
523.5 K, Liquid | 3.122 kPa
524.1 K, Liquid | 3.125 kPa
524.2 K, Liquid | 3.059 kPa and 3.181 kPa
524.4 K, Liquid | 3.199 kPa
525 K, Liquid | 3.353 kPa
525.2 K, Liquid | 3.39 kPa
525.5 K, Liquid | 3.335 kPa
526 K, Liquid | 3.494 kPa
526.3 K, Liquid | 3.406 kPa and 3.328 kPa and 3.288 kPa
526.5 K, Liquid | 3.316 kPa
527.1 K, Liquid | 3.585 kPa
527.3 K, Liquid | 3.551 kPa and 3.644 kPa
528.1 K, Liquid | 3.726 kPa and 3.627 kPa
528.2 K, Liquid | 3.635 kPa
528.3 K, Liquid | 3.831 kPa
529.2 K, Liquid | 3.887 kPa
529.4 K, Liquid | 3.764 kPa
529.6 K, Liquid | 3.879 kPa and 3.918 kPa
530.1 K, Liquid | 3.984 kPa
530.3 K, Liquid | 4.036 kPa and 4.045 kPa
531 K, Liquid | 4.159 kPa
531.3 K, Liquid | 4.262 kPa and 4.216 kPa
532.2 K, Liquid | 4.348 kPa [middle of 4 runs]
533.2 K, Liquid | 4.481 kPa
533.3 K, Liquid | 4.576 kPa and 4.47 kPa
534.3 K, Liquid | 4.611 kPa and 4.532 kPa
535.4 K, Liquid | 4.812 kPa
535.7 K, Liquid | 4.867 kPa
536.2 K, Liquid | 4.889 kPa
536.5 K, Liquid | 4.992 kPa
537.3 K, Liquid | 5.217 kPa
538.3 K, Liquid | 5.356 kPa
539.3 K, Liquid | 5.685 kPa
540.6 K, Liquid | 5.862 kPa

Settings | Normal melting temperature [°C]
[1], Crystal | 165.1

Settings | Molar enthalpy of transition or fusion [kcal/mol]
[2] | 5.88
